Where two headings read alike, the source gives them in different places.
What was measured:
Phytophthora infestans = type: cell-based; details: 405 nm, 7 days after inoculation, 18° C.
Septoria tritici = details: 0.004 ppm; 405 nm, 7 days after inoculation, 18° C.
[1] = test system: Sugar beet seeds (Beretta); test: Safener effect of dimethomorph: germination of pelleted sugar beet seeds under cold stress; type: in vivo; details: 30 g a.i./U seed pelleting; % of sown seeds; 6 days 13° C. then 5° C.; all seeds also treated with 6 g/U thiram and 14.7 g/U hymexazole
Experimental: Sugar beet seeds (Beretta) were pelleted either with pyraclostrobin alone or with pyraclostrobin in combination with dimethomorph. After sowing, the seeds (200 seeds per treatment, 4 repetitions) were grown for 6 days at 13° C. and then exposed to 5° C. for 7 days. Cultivation was then continued at 20° C. During the whole cultivation period the soil was kept at 20% humidity. 7 and 8 days after sowing (DAS) germination was assessed as % of the number of sown seeds.

COc1ccc(C(=CC(=O)N2CCOCC2)c2ccc(Cl)cc2)cc1OC [Dimethomorph]
Observed efficacy (Phytophthora infestans; 0.25 ppm): 51%

C/C(=N\C#N)N(C)Cc1ccc(Cl)nc1 [Acetamiprid]
Observed efficacy (Phytophthora infestans; 0.25 ppm): 0%

CC(C)C1CCC(Cc2ccc(Cl)cc2)C1(O)Cn1cncn1 (stereo not drawn) [Ipconazol]
Observed efficacy (Phytophthora infestans; 0.063 ppm): 2%

COC(=O)N(OC)c1ccccc1COc1ccn(-c2ccc(Cl)cc2)n1 [Pyraclostrobin]
Observed efficacy (Septoria tritici): 49% | Germination 7 DAS [1]: 16% | Germination 8 DAS [1]: 27%
